The results in this text go back to patent US20090311344A1, “Dosing Regimen” (priority 2008, published 2009).

Assay [1] deals with HT-29 human colon carcinoma xenografts. Description: HT-29 human colon carcinoma xenografts in athymic nude mice: tumor growth delay. In kind it is in vivo. From the text:
Administration of the TPO Mimetic Peptide Compound One Hour After Administration of Carboplatin. Effect on activity and toxicity of carboplatin against HT-29 human colon carcinoma xenografts established in athymic nude mice.
Five groups (n=10) of female athymic nude mice (Harlan) bearing established (˜100 mm^3) HT-29 human colon carcinomas on Day 1. Groups 6-9 (n=20) were included for blood sampling and received the same treatment as Groups 1-4, respectively. Treatment effects on the growth of tumors were evaluated by tumor growth delay (TGD), which is the difference between median time to endpoint (TTE) tumor size in a treatment group compared to a control group. The effect of these treatments on platelet and erythrocyte precursors was determined from CBC analysis and reticulocyte counts of blood samples taken on Days 10, 13, 21 and 24.
Xenografts were initiated from HT-29 human colon carcinoma xenografts maintained in athymic nude mice. HT-29 tumor fragments (1 mm^3) were implanted subcutaneously into the right flank of each test mouse, and tumor growth was monitored. On Day 1 of the study, the animals were pair-matched into five groups (Groups 1-5) for evaluation of efficacy and four groups for sampling (Groups 6-9). Groups 1-5 each consisted of ten animals with tumor sizes ranging from 75-126 mm^3 and group mean tumor sizes of 99 mm^3. Groups 6-9 each consisted of twenty animals with tumor sizes ranging from 40-221 mm^3 and group mean tumor sizes of 84 mm^3. Tumor weight was estimated with the assumption that 1 mg is equivalent to 1 mm^3 of tumor volume. Volume was calculated using the formula:
(§1) Group 1 mice (n=10) were untreated tumor growth controls. Group 2 mice (n=10) received 60 mg/kg carboplatin administered intraperitoneally (i.p.) on Days 1, 2, 12, and 13. Group 3 mice (n=10) received 0.2 mg/kg of the TPO mimetic peptide compound administered intravenously (i.v.) via tail vein on Days 2 and 13. Groups 4 and 5 received the combination of carboplatin (60 mg/kg i.p. on Days 1, 2, 12, and 13) and 0.2 mg/kg of the TPO mimetic peptide compound on Days 2, 13 and Days 2, 13, 23, respectively, administered intravenously (i.v.) one hour after carboplatin dosing. Groups 6-9 (n=20 each) were included for blood sampling and received the same treatments as Groups 1-4, respectively. For all groups, each dose of drug was given in a volume of 0.2 mL per 20 g of body weight (10 mL/kg), and was scaled to the body weight of each animal.
Tumors were measured twice each week using calipers. Each animal was euthanized when its tumor reached the predetermined endpoint size of 1000 mm^3, or on the final day of the study (Day 62), whichever came first. The time to endpoint (TTE) for each mouse was calculated from the following equation: […]
where b is the intercept and m is the slope of the line obtained by linear regression of a log-transformed tumor growth data set. The data set was comprised of the first observation that exceeded the study endpoint volume and the three consecutive observations that immediately preceded the attainment of the endpoint volume.
Treatment outcome was determined from tumor growth delay (TGD), which is defined as the increase in the median time to endpoint (TTE) in a treatment group compared to the control group:
where: • T=median TTE for a treatment group, • C=median TTE for the control group (Group 1)
Treatment may cause partial regression (PR) or complete regression (CR) of the tumor in an animal. In a PR response, the tumor volume is 50% or less of its Day 1 volume for three consecutive measurements during the course of the study, and equal to or greater than 13.5 mm^3 for one or more of these three measurements. In a CR response, the tumor volume is less than 13.5 mm^3 for three consecutive measurements during the course of the study. An animal with a CR response at the termination of a study is additionally classified as a long-term tumor-free survivor (LTTFS). […]
For orientation: A xenograft is tissue or cells of one species grown in another, often human tumour cells in immunodeficient mice.

The test system of assay [2] is platelets, reticulocytes, hematocrit. Description: CBC analysis and reticulocyte counts in HT-29 tumor-bearing mice (Groups 6-9). Type of assay: in vivo, athymic nude mice. The conditions noted are these: for mean reticulocyte values: Group 7. As to the method:
Five groups (n=10) of female athymic nude mice (Harlan) bearing established (˜100 mm^3) HT-29 human colon carcinomas on Day 1. Groups 6-9 (n=20) were included for blood sampling and received the same treatment as Groups 1-4, respectively. Treatment effects on the growth of tumors were evaluated by tumor growth delay (TGD), which is the difference between median time to endpoint (TTE) tumor size in a treatment group compared to a control group. […]
as §1
[…] Blood was collected into EDTA tubes, and complete blood counts (CBC) with differential were determined using a Cell-Dyn® 3700 System (Abbott Diagnostics) for automated hematology analyses. Reticulocyte values were determined. In addition, for Groups 1-5, five animals per group were euthanized at or just after endpoint by terminal cardiac puncture under CO2 anesthesia, and gross necropsies were performed. Blood samples were collected into EDTA tubes, and CBC with differential and reticulocyte values were performed as previously described. All other animals in Groups 1-5 were euthanized at endpoint without sampling.

Molecules are shown by their SMILES.

Regarding `N.N.O=C([O-])C1(C(=O)[O-])CCC1.[Pt+2]` [carboplatin, Carboplatin, reference compound], the regression responses entry in assay [1] (Group 2) is given as “No regression responses were recorded”. Further, the “number of 62-day survivors” value in assay [1] (Group 2, n=10) came out at 1. The “tumor volume of the animal remaining in the study on Day 62” value in assay [1] (Group 2, one animal) stood at 600 mm^3. Also, the “Tumor Burden Median” value in assay [1] (Group 2: carboplatin 60 mg/kg i.p. Days 1, 2, 12, 13, (n animals) in brackets) is given as 600(1). For the same compound, the “TGD (tumor growth delay)” value in assay [1] (Groups 2-4, relative to untreated Group 1, carboplatin 60 mg/kg i.p. Days 1, 2, 12, 13, TPO mimetic peptide compound 0.2 mg/kg i.v. Days 2, 13) worked out at 22.8 days. For the same compound, in assay [1] (HT-29 xenografts, athymic nude mice, n=10, carboplatin 60 mg/kg i.p. Days 1, 2, 12, 13, TPO mimetic peptide compound 0.2 mg/kg i.v. Days 2, 13, Groups 2-4, vs untreated Group 1), the “% Tumor Growth Delay” value is 92%. In assay [1] (HT-29 xenografts, athymic nude mice, n=10, carboplatin 60 mg/kg i.p. Days 1, 2, 12, 13, TPO mimetic peptide compound 0.2 mg/kg i.v. Days 2, 13, Groups 2-4, endpoint 1000 mm^3), the “Median TTE” value was found to be 47.6 days. The “mean HCT values of Group 7 compared to Group 9” value in assay [2] (Days 13, 21, and 23) is given as “slightly lower”. Besides, the mean reticulocyte values entry was “negligible” in assay [2] (Day 10 (near the expected nadir)), “higher than in control mice” in assay [2] (Day 13) and “low” in assay [2] (Day 21 after the second cycle of treatment). Also, the “mean hematocrit (HCT) values compared to untreated mice (Group 6)” value in assay [2] (Groups 7-9) is on record as “lower mean HCT values than controls”. For the same compound, the “mean platelet counts compared to untreated Group 6 controls” value in assay [2] (Groups 7-9, regimens as Groups 2-4, Days 10, 13, 21, and 23) is listed as “lower mean platelet counts at all time points”.
